Measured values published in patent US20090093538A1, “Method for treating cancer” (priority 2007, published 2009).

Experiments:
HSB2 cells = experiment: Apoptosis, Annexin V / propidium iodide FACS; format: cell-based
Protocol: To confirm that the ability of NAC to block Compound 1-induced cell death was not cell-line specific, we examined the role of oxidative stress in two additional cell lines by FAC analysis. RAMOS and HSB2 cells (ATCC) were seeded in 6-well plates at 1×10^6 cells/well/4 mL and incubated at 37° C. for 4 hours. […] After incubation the cells were stained with Annexin V and propidium iodide (Vybrant Apoptosis assay kit, Cat# V13241, Invitrogen, Molecular Probes) for measuring apoptotic cells by FACS analysis.
The cells were harvested and stained with Annexin V and propidium iodide for measuring apoptotic cells by FACS analysis.

MSK1 = MSK1 phosphorylation, Western blot, MDA-MB-435 cells; format: cell-based, human; settings: 10, 50, 100, 500 or 1000 nM, 4 hours
Protocol: (§1) After treatment the cells were lysized and used for Western blot analysis.
(§2) Samples were run on a SDS-PAGE gel and proteins were transferred onto a nitrocellulose membrane by a semi-dry transfer. Nitrocellulose was blocked with 5% skim milk in TBS with 0.5% Tween at room temperature for 1 hour and then probed with anti-p-MSK1 (Thr581) (#9595, Cell Signaling) antibody. The nitrocellulose was then probed with secondary antibodies, HRP-conjugated goat anti-rabbit IgG and HRP-conjugated horse anti-mouse IgG (#7074, #7076, Cell Signaling). LumiGLO reagent, 20× Peroxide (#7003, Cell Signaling) was used to visualize gel (see FIG. 36).
(§3) Samples were run on a SDS-PAGE gel and proteins were transferred onto a nitrocellulose membrane by a semi-dry transfer. Nitrocellulose was blocked with 5% skim milk in TBS with 0.5% Tween at room temperature for 1 hour and then probed with anti-p-MSK1 (Thr581) (#9595, Cell Signaling) antibody. Tubulin was used as a normalization control and was probed with Anti-Tubulin (T9026, Sigma) antibody.

Hsp70 [1] = experiment: Hsp70 induction in tumor and non-tumor cells (Western blot); format: cell-based, human; settings: 0.5 μM, 15 hours; MDA-MB-435 vs HMEC and HRE cells
Protocol: MDA-MB-435, human mammary epithelial (HMEC) […] (see Ross et al., “Systematic variation in gene expression patterns in human cancer cell lines,” Nat. Genet. (2000). 24(3):227-3.), and human renal epithelial (HRE) cells were seeded in 100 mm tissue culture plates at 1.5×10^6 cells/plate and incubated at 37° C. with 5% CO2 for several hours. […] After treatment the cells were lysized and used for Western blot analysis.
as §2, with “membrane.” for “membrane by a semi-dry transfer.”, “anti-Hsp70 (mouse IgG, sc-24, Santa Cruz)” for “anti-p-MSK1 (Thr581) (#9595, Cell Signaling)”, “25).” for “36).”

MAPKAPK-2 = MAPKAPK-2 phosphorylation, Western blot, CEM and CV-1 cells; format: cell-based; settings: CEM and CV-1 tumor cells, 0.1 or 0.5 μM
Protocol: as §1
as §3, with “anti-p-MAPKAPK-2 (Thr334) (#3041,” for “anti-p-MSK1 (Thr581) (#9595,”

Hsp70 [2] = experiment: Cell surface expression of Hsp70, MCF-7 cells (immunofluorescence); format: cell-based, human; settings: MCF-7, 0.5 μM, 3 hrs
Protocol: (§4) After treatment, cells were rinsed one time in PBS then fixed in 2% Paraformaldehyde at room temperature for 20 minutes. Slides with the fixed cells were rinsed with PBS two times. Primary antibody mouse monoclonal anti-Hsp70 (Stressgen SPA-8 10) was diluted 1:100 in PBS and the slides were incubated 1 hour at 37° C. The slides were rinsed two times with PBS. Secondary antibody anti-mouse AlexaFluor 488 (Molecular Probes A-11001) was diluted 1:500 in PBS and the slides were incubated 30 min at 37° C. The slides were rinsed two times in PBS. DAPI (Molecular Probes D-3571) were diluted 1:10,000 in PBS and the slides were incubated at room temperature in dark for 5 min. The slides were rinsed two times in PBS, then once in deionized water and left to dry in dark until almost completely dry. Coverslips were mounted with Prolong Anti-fade Mounting Media (Molecular Probes P-748 1). The images were captured with a monochrome CCD camera SenSys (see FIGS. 27A-D and 28A-D) or by confocal microscopy (see FIG. 29A-E). In FIGS. 27A-D and 28A-D, the bright pink color on the surface of the MCF-7 cells (FIG. 27A-D) or CEM cells (FIG. 28A-D) indicates Hsp70 on the surface of the cells. In FIG. 29A-E the bright green color on the surface of the cell indicates Hsp70 on the surface of the HT29 cells.

Hsp70 [3] = experiment: Phase I trial: plasma Hsp70 (sandwich ELISA); format: in vivo, human; settings: co-administered with paclitaxel
Protocol: Plasma Hsp70 was measured by a sandwich ELISA kit (Stressgen Bioreagents Victoria, British Columbia, CANADA) according to a modified protocol in house. In brief, Hsp70 in plasma specimens and serial concentrations of Hsp70 standard were captured onto 96-well plate on which anti-Hsp70 antibody was coated. Then captured Hsp70 was detected with a biotinylated anti-Hsp70 antibody followed by incubation with europium-conjugated streptavidin. After each incubation, unbound materials were removed by washing. Finally, antibody-Hsp70 complex was measured by time resolved fluorometry of europium. Concentration of Hsp70 was calculated from a standard curve.

Hsp70 [4] = experiment: Cell surface expression of Hsp70, CEM cells (immunofluorescence); format: cell-based; settings: 3 hrs
Protocol: as §4

[5] = human, in vivo
[6] = system: human breast tumor MDA-MB-435; settings: Paclitaxel 5 mg/kg + Compound 1 25 or 50 mg/kg, IV, 3 times a week for 3 weeks, nude mice
Protocol: The in vivo anti-cancer enhancing effect of novel compounds was assessed in tumor bearing mice using the tumor growth inhibition assay. Tumor cells were implanted by injection of a tumor cell suspension subcutaneously in the flank of a mouse. […] Tumors were measured two times a week. During the course of this assay, animals were monitored daily for signs of toxicity including body weight loss.

[7] = Compound 1 0.2 μM plus NAC 5 mM, 20 hours
[8] = Compound 1 0.2 μM, 20 hours (FIG. 39D)

With `CN(NC(=O)CC(=O)NN(C)C(=S)c1ccccc1)C(=S)c1ccccc1` [Compound 1] the early apoptotic cells (HSB2 cells; 200 nM Compound 1, 24 hours (DMSO 12%)) was 45%, the “cells in early stages of apoptosis” value (HSB2 cells; [7]) was 2.9% and the “cells in late stages of apoptosis” value (HSB2 cells; [7]) was 3.8%. The early apoptotic cells (HSB2 cells; Compound 1 0.2 μM plus NAC 5 mM, 24 hours) was 6%, the “cells in early stages of apoptosis” value (HSB2 cells; [8]) was 26.6% and the “cells in late stage apoptosis” value (HSB2 cells; [8]) was 41.5%. For the same molecule, the “phosphorylation of MSK1” value (MSK1) was “induces the phosphorylation of MSK1 in a dose dependent manner”, the “induction of Hsp70” value (Hsp70 [1]) was “preferentially induces Hsp70 in MDA-MB-435 tumor cells compared to non-tumor HMEC, and HRE cells” and the “phosphorylation of MAPKAPK-2” value (MAPKAPK-2) was “induces the phosphorylation of MAPKAPK-2”. For the same molecule, the “Hsp70 on the surface of cells” value (Hsp70 [2]) was “bright pink fluorescent color on the surface of the cells indicating Hsp70”, the “Hsp70 on the surface of cells” value (Hsp70 [2]; then 2 hrs recovery without Compound 1) was “stronger than immediately following treatment with Compound 1” and the “induction of Hsp70 protein in plasma” value (Hsp70 [3]) was “dose dependent”. For the same molecule, the “Hsp70 on the surface of cells” value (Hsp70 [4]; 0.05 μM) was “bright pink fluorescent color on the surface of the cells indicating Hsp70”, the “Hsp70 on the surface of cells” value (Hsp70 [4]; 0.1 μM) was “brighter than when cells were treated with 0.05 μM of Compound 1” and the “Hsp70 on the surface of cells” value (Hsp70 [4]; 0.5 μM) was “brighter than when cells were treated with 0.05 μM of Compound 1 but about the same as cells treated with 0.1 KIM”. The serious side effects [5] was “No serious side effects specifically attributable to Compound 1 were observed” and the “anti-tumor activity (tumor volume)” value [6] was “significantly enhanced anti-tumor activity of paclitaxel”.
